Source: PubChem BioAssay (NCI)
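A five-concentration, 48-hour dose response in 96-well plates underlies each endpoint, interpolated linearly between surrounding concentrations. At the TGI there is no net growth.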

Columns and labels:
Test in all cases: NCI-60 cell line screen, 48 h
786-0 renal = tested on: 786-0 renal
A498 renal = tested on: A498 renal
A549 NSCLC = tested on: A549 NSCLC
ACHN renal = tested on: ACHN renal
CAKI-1 renal = tested on: CAKI-1 renal
CCRF-CEM leukemia = tested on: CCRF-CEM leukemia
COLO 205 colon = tested on: COLO 205 colon
DLD-1 colon = tested on: DLD-1 colon
DMS 114 small cell lung = tested on: DMS 114 small cell lung
DMS 273 small cell lung = tested on: DMS 273 small cell lung
EKVX NSCLC = tested on: EKVX NSCLC
HCC-2998 colon = tested on: HCC-2998 colon
HCT-116 colon = tested on: HCT-116 colon
HCT-15 colon = tested on: HCT-15 colon
HL-60(TB) leukemia = tested on: HL-60(TB) leukemia
HOP-18 NSCLC = tested on: HOP-18 NSCLC
HOP-62 NSCLC = tested on: HOP-62 NSCLC
HOP-92 NSCLC = tested on: HOP-92 NSCLC
HT29 colon = tested on: HT29 colon
IGROV1 ovarian = tested on: IGROV1 ovarian
K-562 leukemia = tested on: K-562 leukemia
KM12 colon = tested on: KM12 colon
KM20L2 colon = tested on: KM20L2 colon
LOX IMVI melanoma = tested on: LOX IMVI melanoma
LXFL 529 NSCLC = tested on: LXFL 529 NSCLC
M14 melanoma = tested on: M14 melanoma
M19-MEL melanoma = tested on: M19-MEL melanoma
MALME-3M melanoma = tested on: MALME-3M melanoma
MOLT-4 leukemia = tested on: MOLT-4 leukemia
NCI-H226 lung = tested on: NCI-H226 lung
NCI-H23 lung = tested on: NCI-H23 lung
NCI-H460 lung = tested on: NCI-H460 lung
NCI-H522 lung = tested on: NCI-H522 lung
OVCAR-3 ovarian = tested on: OVCAR-3 ovarian
OVCAR-4 ovarian = tested on: OVCAR-4 ovarian
OVCAR-5 ovarian = tested on: OVCAR-5 ovarian
OVCAR-8 ovarian = tested on: OVCAR-8 ovarian
RPMI-8226 leukemia = tested on: RPMI-8226 leukemia
RXF 393 renal = tested on: RXF 393 renal
SF-268 CNS = tested on: SF-268 CNS
SF-295 CNS = tested on: SF-295 CNS
SF-539 CNS = tested on: SF-539 CNS
SK-MEL-2 melanoma = tested on: SK-MEL-2 melanoma
SK-MEL-28 melanoma = tested on: SK-MEL-28 melanoma
SK-MEL-5 melanoma = tested on: SK-MEL-5 melanoma
SK-OV-3 ovarian = tested on: SK-OV-3 ovarian
SN12C renal = tested on: SN12C renal
SNB-19 CNS = tested on: SNB-19 CNS
SNB-75 CNS = tested on: SNB-75 CNS
SNB-78 CNS = tested on: SNB-78 CNS
SR leukemia = tested on: SR leukemia
SW-620 colon = tested on: SW-620 colon
TK-10 renal = tested on: TK-10 renal
U251 CNS = tested on: U251 CNS
UACC-257 melanoma = tested on: UACC-257 melanoma
UACC-62 melanoma = tested on: UACC-62 melanoma
UO-31 renal = tested on: UO-31 renal
XF 498 CNS = tested on: XF 498 CNS

## O=C1C(Cl)C(c2cc(Br)ccc2O)N1n1cnc2ccccc2c1=O (stereo not drawn)
786-0 renal
  TGI: > 100 µM
A498 renal
  TGI: > 100 µM
A549 NSCLC
  TGI: > 100 µM
ACHN renal
  TGI: > 95.2 µM
CAKI-1 renal
  TGI: > 94.3 µM
CCRF-CEM leukemia
  TGI: > 100 µM
COLO 205 colon
  TGI: > 100 µM
DLD-1 colon
  TGI: > 100 µM
DMS 114 small cell lung
  TGI: 28.2 µM
DMS 273 small cell lung
  TGI: > 73.2 µM
EKVX NSCLC
  TGI: 27.8 µM
HCC-2998 colon
  TGI: 65.9 µM
HCT-116 colon
  TGI: 33.3 µM
HCT-15 colon
  TGI: > 100 µM
HL-60(TB) leukemia
  TGI: 16.4 µM
HOP-18 NSCLC
  TGI: 45.5 µM
HOP-62 NSCLC
  TGI: > 100 µM
HOP-92 NSCLC
  TGI: 71.1 µM
HT29 colon
  TGI: > 100 µM
IGROV1 ovarian
  TGI: > 92.7 µM
K-562 leukemia
  TGI: > 47.3 µM
KM12 colon
  TGI: > 100 µM
KM20L2 colon
  TGI: > 100 µM
LOX IMVI melanoma
  TGI: > 100 µM
LXFL 529 NSCLC
  TGI: > 100 µM
M14 melanoma
  TGI: 27.6 µM
M19-MEL melanoma
  TGI: 35.1 µM
MALME-3M melanoma
  TGI: 70.1 µM
MOLT-4 leukemia
  TGI: 29 µM
NCI-H226 lung
  TGI: 39.1 µM
NCI-H23 lung
  TGI: > 71 µM
NCI-H460 lung
  TGI: 60.5 µM
NCI-H522 lung
  TGI: > 51.5 µM
OVCAR-3 ovarian
  TGI: > 82.1 µM
OVCAR-4 ovarian
  TGI: > 82.7 µM
OVCAR-5 ovarian
  TGI: > 100 µM
OVCAR-8 ovarian
  TGI: > 100 µM
RPMI-8226 leukemia
  TGI: 43.7 µM
RXF 393 renal
  TGI: > 100 µM
SF-268 CNS
  TGI: > 55 µM
SF-295 CNS
  TGI: > 100 µM
SF-539 CNS
  TGI: > 100 µM
SK-MEL-2 melanoma
  TGI: > 100 µM
SK-MEL-28 melanoma
  TGI: > 78.2 µM
SK-MEL-5 melanoma
  TGI: > 86.8 µM
SK-OV-3 ovarian
  TGI: > 100 µM
SN12C renal
  TGI: > 100 µM
SNB-19 CNS
  TGI: > 62.9 µM
SNB-75 CNS
  TGI: 71.4 µM
SNB-78 CNS
  TGI: > 93.9 µM
SR leukemia
  TGI: > 36.9 µM
SW-620 colon
  TGI: > 100 µM
TK-10 renal
  TGI: > 100 µM
U251 CNS
  TGI: > 100 µM
UACC-257 melanoma
  TGI: 49.1 µM
UACC-62 melanoma
  TGI: > 68 µM
UO-31 renal
  TGI: > 56.3 µM
XF 498 CNS
  TGI: > 100 µM

## O=C1c2c(c(-c3ccccc3)c(-c3ccccc3)c(-c3ccccc3)c2-c2ccccc2)C(=O)N1c1cccc(Br)c1
786-0 renal
  TGI: > 100 µM
A498 renal
  TGI: > 100 µM
A549 NSCLC
  TGI: > 100 µM
CAKI-1 renal
  TGI: > 100 µM
CCRF-CEM leukemia
  TGI: > 100 µM
COLO 205 colon
  TGI: > 100 µM
DLD-1 colon
  TGI: > 100 µM
DMS 114 small cell lung
  TGI: > 100 µM
DMS 273 small cell lung
  TGI: > 100 µM
EKVX NSCLC
  TGI: > 100 µM
HCC-2998 colon
  TGI: > 100 µM
HCT-116 colon
  TGI: > 100 µM
HCT-15 colon
  TGI: > 100 µM
HL-60(TB) leukemia
  TGI: > 100 µM
HOP-18 NSCLC
  TGI: > 100 µM
HOP-62 NSCLC
  TGI: > 100 µM
HOP-92 NSCLC
  TGI: > 100 µM
IGROV1 ovarian
  TGI: > 100 µM
K-562 leukemia
  TGI: > 100 µM
KM12 colon
  TGI: > 100 µM
KM20L2 colon
  TGI: > 100 µM
LOX IMVI melanoma
  TGI: > 100 µM
LXFL 529 NSCLC
  TGI: > 100 µM
M14 melanoma
  TGI: > 100 µM
M19-MEL melanoma
  TGI: > 100 µM
MALME-3M melanoma
  TGI: > 100 µM
MOLT-4 leukemia
  TGI: > 100 µM
NCI-H226 lung
  TGI: > 100 µM
NCI-H23 lung
  TGI: > 100 µM
NCI-H460 lung
  TGI: > 100 µM
NCI-H522 lung
  TGI: > 100 µM
OVCAR-3 ovarian
  TGI: > 100 µM
OVCAR-4 ovarian
  TGI: > 100 µM
OVCAR-5 ovarian
  TGI: > 100 µM
OVCAR-8 ovarian
  TGI: > 100 µM
RPMI-8226 leukemia
  TGI: > 100 µM
RXF 393 renal
  TGI: > 100 µM
SF-268 CNS
  TGI: > 100 µM
SF-295 CNS
  TGI: > 100 µM
SF-539 CNS
  TGI: > 100 µM
SK-MEL-2 melanoma
  TGI: > 100 µM
SK-MEL-5 melanoma
  TGI: > 100 µM
SK-OV-3 ovarian
  TGI: > 100 µM
SN12C renal
  TGI: > 100 µM
SNB-19 CNS
  TGI: > 100 µM
SNB-75 CNS
  TGI: > 100 µM
SNB-78 CNS
  TGI: > 100 µM
SR leukemia
  TGI: > 100 µM
SW-620 colon
  TGI: > 100 µM
TK-10 renal
  TGI: > 100 µM
U251 CNS
  TGI: > 100 µM
UACC-257 melanoma
  TGI: > 100 µM
UACC-62 melanoma
  TGI: > 100 µM
UO-31 renal
  TGI: > 100 µM
XF 498 CNS
  TGI: > 100 µM

## CC1(C)O[C@@H](CC/C=C/CO)[C@H](CC/C=C/CO)O1
786-0 renal
  TGI: > 100 µM
A498 renal
  TGI: > 100 µM
A549 NSCLC
  TGI: > 100 µM
ACHN renal
  TGI: > 100 µM
CAKI-1 renal
  TGI: > 100 µM
CCRF-CEM leukemia
  TGI: > 100 µM
COLO 205 colon
  TGI: > 100 µM
DLD-1 colon
  TGI: > 100 µM
DMS 114 small cell lung
  TGI: > 100 µM
DMS 273 small cell lung
  TGI: > 100 µM
EKVX NSCLC
  TGI: > 100 µM
HCC-2998 colon
  TGI: > 100 µM
HCT-116 colon
  TGI: > 100 µM
HCT-15 colon
  TGI: > 100 µM
HL-60(TB) leukemia
  TGI: > 100 µM
HOP-18 NSCLC
  TGI: > 100 µM
HOP-62 NSCLC
  TGI: > 100 µM
HOP-92 NSCLC
  TGI: > 100 µM
HT29 colon
  TGI: > 100 µM
IGROV1 ovarian
  TGI: > 100 µM
K-562 leukemia
  TGI: > 100 µM
KM12 colon
  TGI: > 100 µM
KM20L2 colon
  TGI: > 100 µM
LOX IMVI melanoma
  TGI: > 100 µM
LXFL 529 NSCLC
  TGI: > 100 µM
M14 melanoma
  TGI: > 100 µM
M19-MEL melanoma
  TGI: > 100 µM
MALME-3M melanoma
  TGI: > 100 µM
MOLT-4 leukemia
  TGI: > 100 µM
NCI-H226 lung
  TGI: > 100 µM
NCI-H23 lung
  TGI: > 100 µM
NCI-H460 lung
  TGI: > 100 µM
NCI-H522 lung
  TGI: > 100 µM
OVCAR-3 ovarian
  TGI: > 100 µM
OVCAR-4 ovarian
  TGI: > 100 µM
OVCAR-5 ovarian
  TGI: > 100 µM
OVCAR-8 ovarian
  TGI: > 100 µM
RPMI-8226 leukemia
  TGI: > 100 µM
SF-268 CNS
  TGI: > 100 µM
SF-295 CNS
  TGI: > 100 µM
SF-539 CNS
  TGI: > 100 µM
SK-MEL-2 melanoma
  TGI: > 100 µM
SK-MEL-28 melanoma
  TGI: > 100 µM
SK-MEL-5 melanoma
  TGI: > 100 µM
SK-OV-3 ovarian
  TGI: > 100 µM
SN12C renal
  TGI: > 100 µM
SNB-19 CNS
  TGI: > 100 µM
SNB-75 CNS
  TGI: > 100 µM
SNB-78 CNS
  TGI: > 100 µM
SR leukemia
  TGI: > 100 µM
SW-620 colon
  TGI: > 100 µM
TK-10 renal
  TGI: > 100 µM
U251 CNS
  TGI: > 100 µM
UACC-257 melanoma
  TGI: > 100 µM
XF 498 CNS
  TGI: > 100 µM
